According to paper PMC4848510, “Foldamer-mediated manipulation of a pre-amyloid toxin” (Nature Communications, 2016):

What was measured:
IAPP = molecular target: T1, IAPP (Homo sapiens, UniProt P10997); test: LUV-catalysed IAPP fibre formation kinetic assay (ThT fluorescence); format: biochemical; conditions: 10 μM IAPP, 1:1 IAPP:small molecule, 630 μM LUVs DOPG:DOPC 1:1; ND = no kinetics over time of observation
T1 construct: IAPP is a 37-residue peptide co-packaged with insulin in pancreatic β-cells; purchased Genscript; Elim Biopharmaceuticals
T1 sequence (P10997 34-70 limits assumed): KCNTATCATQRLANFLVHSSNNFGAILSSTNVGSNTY
Experimental: Unless otherwise stated, LUVs used in this work were prepared from a 1:1 mixture of DOPG/DOPC. The lyophilized mixture was hydrated in 100 mM KCl, 50 mM sodium phosphate and pH 7.4 for 20 min. A 20mg ml^−1 solution of lipid in buffer was passed 21 times through a polycarbonate membrane (pore diameter=100 nm). The phospholipid content of the final material was measured using a total phosphorous assay.
(§1) Amyloid reactions were conducted in buffer containing liposome (630 μM lipid) and 20 μM ThT in a black 96-well plate. This was followed by the addition of small molecule dissolved in dimethylsulphoxide (DMSO; final DMSO concentration=0.5%, v/v). Fibre formation was initiated by the addition of IAPP stock solution. The final volume in each well was 200 μl. Kinetics of fibrillation was monitored by ThT fluorescence (excitation 450 nm and emission 485 nm), using a FluoDia T70 fluorescence plate reader (Photon Technology International, Edison, NJ, USA). The data were blank subtracted and renormalized to the maximum intensity of reactions containing only IAPP. Each kinetic trace was fit to a sigmoidal form:
(§2) where I is the fluorescence intensity, t is time, and b, m and τ are dependent fitting variables. All samples were run at least in triplicate and error bars shown in the text represent ±1 s.d.

INS-1 cells = test: Rescue of INS-1 cells from IAPP-induced toxicity (CellTiter Blue); conditions: 13 μM IAPP; for rescue of IAPP-induced toxicity, co-addition: small molecule co-added 1:1, 48 h, n=24
Experimental: Cells were passaged on reaching ∼95% confluence (0.25% Trypsin-EDTA, Life Technologies), propagated and/or used in experiments. Cells used in experiments were pelleted and resuspended in fresh media with no Trypsin-EDTA.
Cell viability was measured colourimetrically using the CellTiter Blue (CTB, Promega, Madison, WI, USA) fluorescence-based assay. Cells were plated at a density 5,000 cells per well in 96-well plates (BD Biosciences, San Diego, CA). Peptide was directly introduced to each well after 48 h of culture and then further incubated for an additional 48 h. For time-dependent experiments, cells were incubated with peptide for the specified time points. After the incubation period, 20-μl CellTiter Blue reagent was added to each well and incubated at 37 °C and 5% CO2 for 2.5–3.5 h. Fluorescence of the resorufin product was measured on a FluoDia T70 fluorescence plate reader (Photon Technology International, Birmingham, NJ, USA). All wells included the same amount of water to account for different concentrations of peptide added to sample wells. Wells that included water vehicle but not peptide served as the negative control (0% toxic), and wells containing 10% DMSO were the positive control (100% toxic). Per cent toxicity was calculated using the following equation:
Each independent variable is the average of eight plate replicates from the negative control (<N>), positive control (<P>) and samples (<S>). Results presented for viability experiments are an average of three such experiments conducted independently on different days. Error bars represent the s.e.m.

[1] = IAPP fibre formation in solution without LUVs (ThT); format: physicochemical, human; conditions: 10 μM IAPP, no LUVs, at least triplicate, ±1 s.d.
Experimental: as §1, with “form: […]” for “form:”
as §2
Supplementary Figure 1: Kinetic profiles of IAPP self-assembly. a, Three representative kinetic profiles for a standard reaction of 10 µM IAPP catalysed by the presence of 630 µM LUVs (DOPG:DOPC, 1:1, 100 nm) (inset) A representative sigmoid fit (magenta) used to extract reaction midpoints, t50. b, Representative comparison of the kinetic profiles of (10 µM) IAPP fibrillation in the absence (black) and presence (red) of 630 µM LUVs. […]

[2] = tested on: Src and its homologue, Abl; conditions: cited from earlier work
Source text: Dynamic binding modes, such as conformational selection, are often observed in protein:ligand interactions. A recent example is the anti-cancer drug Gleevec[8]. Gleevec binds to structurally identical sites in Src and its homologue, Abl. […] It stands to reason that the internal degrees of freedom of ligands should be similarly exploitable. However, ligand dynamics are viewed unfavourably as a result of entropy loss on binding. The non-covalent and reversible stabili ...

Molecule	t50 / (t50 IAPP only), inhibition of LUV-catalysed fibre formation (IAPP)	rescue of IAPP-induced toxicity, co-addition (INS-1 cells)	reaction midpoint t50 of IAPP assembly into fibres in solution [1] [h]	decrease of INS-1 viability (INS-1 cells; 48 h incubation) [%]	difference in binding affinity between Src and Abl [2]
acid fuchsin	no detectable effect	ineffective in rescuing toxicity	–	–	–
O=C(O[C@@H]1Cc2c(O)cc(O)cc2O[C@@H]1c1cc(O)c(O)c(O)c1)c1cc(O)c(O)c(O)c1 [EGCG, epigallocatechin gallate]	no detectable effect	ineffective in rescuing toxicity	–	–	–
CC[C@H](C)[C@H](NC(=O)[C@H](C)NC(=O)CNC(=O)[C@H](Cc1ccccc1)NC(=O)[C@H](CC(N)=O)NC(=O)[C@H](CC(N)=O)NC(=O)[C@H](CO)NC(=O)[C@H](CO)NC(=O)[C@H](Cc1c[nH]cn1)NC(=O)[C@@H](NC(=O)[C@H](CC(C)C)NC(=O)[C@H](Cc1ccccc1)NC(=O)[C@H](CC(N)=O)NC(=O)[C@H](C)NC(=O)[C@H](CC(C)C)NC(=O)[C@H](CCCNC(=N)N)NC(=O)[C@H](CCC(N)=O)NC(=O)[C@@H](NC(=O)[C@H](C)NC(=O)[C@@H]1CSSC[C@H](NC(=O)[C@@H](N)CCCCN)C(=O)N[C@@H](CC(N)=O)C(=O)N[C@@H]([C@@H](C)O)C(=O)N[C@@H](C)C(=O)N[C@@H]([C@@H](C)O)C(=O)N1)[C@@H](C)O)C(C)C)C(=O)N[C@@H](CC(C)C)C(=O)N[C@@H](CO)C(=O)N[C@@H](CO)C(=O)N[C@H](C(=O)N[C@@H](CC(N)=O)C(=O)N[C@H](C(=O)NCC(=O)N[C@@H](CO)C(=O)N[C@@H](CC(N)=O)C(=O)N[C@H](C(=O)N[C@@H](Cc1ccc(O)cc1)C(N)=O)[C@@H](C)O)C(C)C)[C@@H](C)O [IAPP]	–	–	18 ± 1.4	78±8	–
Oc1ccc(/C=C/c2cc(O)cc(O)c2)cc1 [resveratrol]	no detectable effect	ineffective in rescuing toxicity	–	–	–
Cc1ccc(NC(=O)c2ccc(CN3CCN(C)CC3)cc2)cc1Nc1nccc(-c2cccnc2)n1 [Gleevec]	–	–	–	–	> 1,000 fold
